{"source": "patent US5767142A", "about": "“Trisbenzimidazoles useful as topoisomerase I inhibitors” (Rutgers, The State University of New Jersey, priority 1996, dated 1998)", "key": {"[1]": {"tested_on": "KBV-1 cells (multidrug-resistant variant of KB3-1, overexpress MDR1)", "test": "MTT cytotoxicity assay, multidrug-resistant KBV-1", "format": "cell-based, human", "conditions": "Homo sapiens, KB-V1, 96 h; 4 days continuous drug exposure; read-out: Cytotoxicity IC50, KBV-1", "experimental": "(§1) The cytotoxicity was determined using the as MTT-microtiter plate tetrazolinium cytotoxicity assay (MTA) following the procedures of F. Denizot et al., J. Immunol. […] The cytotoxicity assay was performed using 96-well microtiter plates. Cells were grown in suspension at 37° C. in 5% CO2 and maintained by regular passage in RPMI medium supplemented with 10% heat inactivated fetal bovine serum, L-glutamine (2 mM), penicillin (100 U/ml), and streptomycin (0.1 mg/ml). For determination of IC50, cells were exposed continuously with varying concentrations of drug concentrations and MTT assays were performed at the end of the fourth day.\n(§2) These cells were grown as monolayer cultures at in 5% CO2 and maintained by regular passage in Dulbecco's minimal essential medium supplemented with 10% heat inactivated fetal bovine serum. KBV-1 cells were similarly maintained except they were grown in the presence of 1 μg/ml vinblastine."}, "[2]": {"tested_on": "KBV-1 cells (multidrug-resistant variant of KB3-1, overexpress MDR1)", "conditions": "cited from earlier work"}, "[3]": {"tested_on": "human epidermoid carcinoma KB3-1 cell line", "test": "MTT cytotoxicity assay, KB3-1", "format": "cell-based", "conditions": "KB 3-1, 96 h, 4 days continuous drug exposure", "experimental": "as §1, §2"}, "topoisomerase I": {"tested_on": "topoisomerase I", "conditions": "literature; cited from earlier work"}, "[4]": {"tested_on": "CPT-K5 cells (camptothecin-resistant variant of RPMI 8402)", "test": "MTT cytotoxicity assay, camptothecin-resistant CPT-K5", "format": "cell-based, human", "experimental": "as §1"}, "[5]": {"tested_on": "human epidermoid carcinoma KB3-1 cell line", "conditions": "previously reported; read-out: IC50 of Hoechst 33342 in KB 3-1 cells; cited from earlier work"}, "[6]": {"conditions": "cited from earlier work"}, "[7]": {"biological_target": "T1, calf thymus topoisomerase I (Bos taurus, UniProt A0AAA9TV68)", "T1 construct": "plasmid YEpG DNA cleavage assay", "T1 sequence (A0AAA9TV68 2-769)": "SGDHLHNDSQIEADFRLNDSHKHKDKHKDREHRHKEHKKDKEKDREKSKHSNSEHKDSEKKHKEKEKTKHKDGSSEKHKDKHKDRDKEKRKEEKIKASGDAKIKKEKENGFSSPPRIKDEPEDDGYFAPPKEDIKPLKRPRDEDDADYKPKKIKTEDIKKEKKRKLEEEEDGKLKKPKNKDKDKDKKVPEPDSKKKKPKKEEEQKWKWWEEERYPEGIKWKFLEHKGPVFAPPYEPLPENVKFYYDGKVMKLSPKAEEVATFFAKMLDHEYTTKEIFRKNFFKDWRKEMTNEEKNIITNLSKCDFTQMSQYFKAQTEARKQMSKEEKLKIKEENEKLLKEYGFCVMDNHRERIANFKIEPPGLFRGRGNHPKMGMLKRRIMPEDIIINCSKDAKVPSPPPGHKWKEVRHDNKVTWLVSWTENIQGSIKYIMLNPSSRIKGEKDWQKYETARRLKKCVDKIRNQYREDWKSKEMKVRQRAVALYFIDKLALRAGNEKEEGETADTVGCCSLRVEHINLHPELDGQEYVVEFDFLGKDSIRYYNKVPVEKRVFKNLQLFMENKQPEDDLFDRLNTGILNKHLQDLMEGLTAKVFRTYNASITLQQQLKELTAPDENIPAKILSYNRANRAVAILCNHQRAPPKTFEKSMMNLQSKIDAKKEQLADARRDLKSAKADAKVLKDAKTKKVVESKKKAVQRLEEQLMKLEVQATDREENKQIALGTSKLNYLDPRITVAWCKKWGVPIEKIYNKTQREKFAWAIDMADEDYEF", "test": "Topoisomerase I-mediated DNA cleavage assay (calf thymus topoisomerase I, plasmid YEpG)", "format": "biochemical", "description": "DNA topoisomerase I was purified from calf thymus gland as reported previously by B. D. Halligan et al., J. Biol. Chem., 260, 2475 (1985). Plasmid YEpG was also purified by the alkali lysis method followed by phenol deproteination and CsCl/ethidium isopycnic centrifugation as described by T. Mariatis et al., Molecular Cloning, A Laboratory Manual, Cold Spring Harbor Labs, NY (1982) at pages 149-185. The end-labeling of the plasmid was accomplished as previously described by L. F. Liu et al., J. Biol. Chem., 258, 15365 (1983). The cleavage assays were performed as previously reported by A. Y. Chen et al., Cancer Res., 53, 1332 (1993). Human topoisomerase was isolated as a recombinant fusion protein using a T7 expression system.\n^b Topoisomerase I cleavage values are reported as REC, Relative\nEffective Concentration, i.e. concentrations relative to Hoechst 33342,\nwhose value is arbitrarily assumed as 1, that are able to produce the sam\ncleavage on the plasmid DNA in the presence of calf thymus topoisomerase\nI. Cleavage is calculated from the intensity of the strongest Hoechst"}, "[8]": {"tested_on": "human lymphoblast RPMI 8402 cells", "test": "MTT cytotoxicity assay, RPMI 8402", "format": "cell-based", "conditions": "Homo sapiens, RPMI 8402, 96 h; 4 days continuous drug exposure; read-out: Cytotoxicity IC50, RPMI", "experimental": "as §1"}}, "note": "pIC50: −log10 of the molar value. “Also recorded” adds a separate entry of the source. Where two headings read alike, the source gives them in different places.", "data": [{"smiles": "CCOc1ccc(-c2nc3cc(-c4nc5cc(N6CCN(C)CC6)ccc5[nH]4)ccc3[nH]2)cc1", "note": "[Hoechst 33342, 2'-(4-ethoxyphenyl)-5-(4-methyl-1-piperazinyl)-2,5'-bi-1H-benzimidazole, reference compound]", "values": [{"measurement": "pIC50", "setting": "[1]", "result": 5.92}, {"measurement": "Difference of IC50 between KB 3-1 and KB V-1 cells (in words)", "setting": "[2]; as reported by A. Y. Chen et al., Adv. Pharmacol., 245, 29B (1994)", "result": "differs by approximately two-orders of magnitude"}, {"measurement": "less cytotoxic to KB V-1 cells than to KB 3-1 cells", "setting": "[2]; previously reported, KB V-1 overexpress MDR1", "result": "approximately 130 fold"}, {"measurement": "Efficacy against tumor cell lines which overexpress MDR1 (in words)", "setting": "[2]; previously reported", "result": "not effective against tumor cell lines which overexpress MDR1"}, {"measurement": "pIC50", "setting": "[3]", "result": 8.00}, {"measurement": "Inhibition of topoisomerase I (in words)", "setting": "topoisomerase I", "result": "is an inhibitor of topoisomerase I; also recorded: traps the reversible cleavable complex derived from DNA and topoisomerase I and produces a limited number of highly specific single-strand DNA breaks"}, {"measurement": "Cytotoxicity against CPT-K5 cells (in words)", "setting": "[4]", "result": "effective against camptothecin-resistant CPT-K5 cells"}, {"measurement": "Relative resistance (ratio of IC50 values of resistant versus drug sensitive cell line)", "setting": "[4]; CPT-K5 versus RPMI 8402, 5760 min", "result": "approximately 30 fold"}, {"measurement": "pIC50", "setting": "[4]; Homo sapiens, CPT-K5, 96 h, 4 days continuous drug exposure, read-out: Cytotoxicity IC50, CPT-K5", "result": 6.05}, {"measurement": "pIC50", "setting": "[5]", "result": "~8.05"}, {"measurement": "Protonation at physiological pH (in words)", "setting": "[6]", "result": "extensively protonated at physiological pH"}, {"measurement": "Topo I-mediated DNA cleavage (REC, Relative Effective Concentration)", "setting": "[7]", "result": 1}, {"measurement": "pIC50", "setting": "[8]", "result": 7.52}]}]}
